Measured values: US8492550B2, “Hydroxyalkanyl amides as modulators of chemokine receptor activity” (Bristol-Myers Squibb Company, priority 2008, dated 2013)

Molecular target: T1, CCR1 (Homo sapiens, UniProt P32246)
T1 construct: the THP-1 cell line, which expresses the endogenous CCR1 receptor; endogenous in cells; host or cells: THP-1 (human monocytic cell line); human PBMC or human monocytes are named as alternatives
T1 sequence (P32246 1-355): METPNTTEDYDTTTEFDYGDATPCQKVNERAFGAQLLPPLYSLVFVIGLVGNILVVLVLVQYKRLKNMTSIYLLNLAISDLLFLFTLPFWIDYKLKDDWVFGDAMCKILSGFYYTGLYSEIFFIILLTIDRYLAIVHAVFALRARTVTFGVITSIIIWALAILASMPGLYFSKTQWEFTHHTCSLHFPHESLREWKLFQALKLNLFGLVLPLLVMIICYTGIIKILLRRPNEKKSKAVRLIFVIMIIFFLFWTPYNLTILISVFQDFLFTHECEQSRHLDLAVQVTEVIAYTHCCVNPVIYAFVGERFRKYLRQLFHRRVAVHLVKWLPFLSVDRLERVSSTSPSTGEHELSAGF
Assay: Antagonism of 125I-MIP-1α binding to human THP-1 cells (CCR1 binding)
Settings: THP-1 cells expressing endogenous CCR1; 50 pM 125I-labeled human MIP-1α; room temperature, thirty minutes; read-out: CCR1 Binding Ki (n = 1 unless otherwise noted)
Protocol: Antagonism of MIP-1α Binding to Human THP-1 Cells
Compounds of the present invention have activity in the antagonism of MIP-1α binding to human THP-1 cells described here.
Millipore filter plates (#MABVN1250) are treated with 100 μl of binding buffer (0.5% bovine serum albumin, 20 mM HEPES buffer and 5 mM magnesium chloride in RPMI 1640 media) for thirty minutes at room temperature. To measure binding, 50 μl of binding buffer, with or without a known concentration of compound, is combined with 50 μl of ^125-I labeled human MIP-1α (to give a final concentration of 50 pM radioligand) and 50 μl of binding buffer containing 5×10^5 cells. Cells used for such binding assays can include the THP-1 cell line, which expresses the endogenous CCR1 receptor, or human peripheral blood mononuclear cells, isolated by Ficoll-Hypaque gradient centrifugation, or human monocytes (Weiner et al., J. Immunol. Methods, 36:89 (1980)). The mixture of compound, cells and radioligand is incubated at room temperature for thirty minutes. Plates are placed onto a vacuum manifold, vacuum applied, and the plates washed three times with binding buffer containing 0.5M NaCl. The plastic skirt is removed from the plate, the plate allowed to air dry, the wells punched out and counted. […]

Row | Ki [µM] | Structure (SMILES)
1 | 0.93 | CCC(NC(=O)C1CCCC1)C(O)C1CCN(c2ccc(Cl)cc2)CC1 (single isomer, unassigned) [Example 1, N-(1-(1-(4-Chlorophenyl)piperidin-4-yl)-1-hydroxybutan-2-yl)cyclopentanecarboxamide]
2 | 0.354 | CCC(NC(=O)C1CCCC1)C(O)C1CCN(c2ccc(Cl)cc2)CC1 (single isomer, unassigned) [Example 2, N-(1-(1-(4-Chlorophenyl)piperidin-4-yl)-1-hydroxybutan-2-yl)cyclopentanecarboxamide]
